Here are results for 16 molecules from US9730913B2 (THE JOHNS HOPKINS UNIVERSITY, priority 2011, dated 2017).

SMILES strings stand for the structures. Converted amounts (≈) assume the structure as drawn. “And” between values parts separate entries of the source, which are not always exact repeats. Identical values can stand only once.

Data set [1] deals with TEM-1 β-lactamase, Drug Resistant Mutants and AmpC β-lactamase. As to the kind of experiment: Average Ki over TEM-1, drug resistant mutants and AmpC. In kind it is biochemical. As to conditions: mean over TEM-1, TEM-12, TEM-17, TEM-30, TEM-40, AmpC. The procedure: (§1) The inhibition of beta lactamase was determined spectrophotometrically. Beta lactamase activity was followed by measuring the change in absorbance upon hydrolysis of nitrocefin, [3-(2,4-dinitrostyryl)-(6R,7R)-7-(2-thienylacetamido)-ceph-3-em-4-carboxylic acid, E-isomer], (Calbiochem, San Diego, Calif., USA) at 486 nm. Inhibition constants (Ki) for the inhibitors are obtained at the desired temperature and solvent conditions by measuring the rate of substrate hydrolysis at increasing amounts of inhibitors. All inhibition assays were performed at 25° C. in 50 mM sodium phosphate, 5% DMSO, pH 7.0, keeping the enzyme concentration at 5 nM and the substrate concentration at 167 μM. Reaction was started by addition of substrate to the corresponding mixture of enzyme and inhibitor preincubated for 10 minutes.

In data set [2] the target is AmpC β-lactamase (Escherichia coli, UniProt P00811). Briefly: Spectrophotometric nitrocefin hydrolysis inhibition assay, AmpC.
Data set [3] has as its target wild type TEM-1 β-lactamase (Escherichia coli, UniProt P62593). As to the kind of experiment: Spectrophotometric nitrocefin hydrolysis inhibition assay, TEM-1. As to conditions: for IC50: inhibition values are IC50 unless noted. In kind it is biochemical. The procedure:
as §1

Data set [4] relates to AmpC. As to conditions: read-out: Inhibitory Potency (IC50) AmpC; cited from earlier work.
Data set [5] concerns the target IMP-1 beta-lactamase (Serratia marcescens, UniProt P52699). Briefly: Spectrophotometric nitrocefin hydrolysis inhibition assay, IMP-1.
Data set [6] can be described thus: Solubility. In kind it is physicochemical.
The target in data set [7] is HSA (Homo sapiens, UniProt P02768). Briefly: HSA binding (Kd).
Data set [8] concerns the target TEM-1 (Escherichia coli, UniProt P62593). Briefly: TEM-1 binding enthalpy (ΔH).
Data set [9] can be described thus: Microsomal stability (T1/2). In kind it is in vitro ADME. As to conditions: microsomes.
In data set [10] the test system is Methicillin-resistant (MRSA) Staphylococcus aureus. Briefly: Oxacillin MIC in presence of compound, MRSA. In kind it is cell-based.
Data set [11] deals with Vancomycin-resistant (VRSA) Staphylococcus aureus. Briefly: Oxacillin MIC in presence of compound, VRSA. In kind it is cell-based.
[12] abbreviates: Oxacillin MIC with compound at 4 μg/mL.

Chain of IMP-1 beta-lactamase (P52699 19-246, looked up): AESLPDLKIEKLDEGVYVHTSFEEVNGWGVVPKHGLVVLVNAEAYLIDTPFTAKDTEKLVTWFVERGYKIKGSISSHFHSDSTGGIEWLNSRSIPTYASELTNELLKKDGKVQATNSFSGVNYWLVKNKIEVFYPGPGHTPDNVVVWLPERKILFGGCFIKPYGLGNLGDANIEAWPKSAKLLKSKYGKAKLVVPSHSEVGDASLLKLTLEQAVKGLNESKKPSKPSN
Chain of wild type TEM-1 β-lactamase (P62593 24-286 limits assumed): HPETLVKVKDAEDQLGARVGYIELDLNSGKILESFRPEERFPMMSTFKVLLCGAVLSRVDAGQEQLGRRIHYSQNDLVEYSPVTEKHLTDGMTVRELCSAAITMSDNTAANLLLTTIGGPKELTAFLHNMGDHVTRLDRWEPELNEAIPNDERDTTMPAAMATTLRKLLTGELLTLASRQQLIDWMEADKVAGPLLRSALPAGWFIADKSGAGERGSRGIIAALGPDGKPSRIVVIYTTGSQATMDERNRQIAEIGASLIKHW
Chain of HSA (P02768 25-609): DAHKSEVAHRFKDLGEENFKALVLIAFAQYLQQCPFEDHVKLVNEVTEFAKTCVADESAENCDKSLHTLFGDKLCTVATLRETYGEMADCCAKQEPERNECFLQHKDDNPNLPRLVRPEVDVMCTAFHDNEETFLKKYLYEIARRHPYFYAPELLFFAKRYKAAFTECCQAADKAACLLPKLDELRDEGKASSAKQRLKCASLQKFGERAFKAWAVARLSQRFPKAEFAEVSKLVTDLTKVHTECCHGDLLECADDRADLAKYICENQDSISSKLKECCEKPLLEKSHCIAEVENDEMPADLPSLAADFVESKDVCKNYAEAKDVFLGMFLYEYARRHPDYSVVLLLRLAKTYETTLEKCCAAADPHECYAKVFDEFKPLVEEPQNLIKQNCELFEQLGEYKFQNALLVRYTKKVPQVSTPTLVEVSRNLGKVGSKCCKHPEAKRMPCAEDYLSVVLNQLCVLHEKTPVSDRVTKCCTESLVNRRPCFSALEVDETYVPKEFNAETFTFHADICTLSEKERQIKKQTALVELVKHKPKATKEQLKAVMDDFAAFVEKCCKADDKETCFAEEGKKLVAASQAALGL
Chain of AmpC β-lactamase (P00811 20-377): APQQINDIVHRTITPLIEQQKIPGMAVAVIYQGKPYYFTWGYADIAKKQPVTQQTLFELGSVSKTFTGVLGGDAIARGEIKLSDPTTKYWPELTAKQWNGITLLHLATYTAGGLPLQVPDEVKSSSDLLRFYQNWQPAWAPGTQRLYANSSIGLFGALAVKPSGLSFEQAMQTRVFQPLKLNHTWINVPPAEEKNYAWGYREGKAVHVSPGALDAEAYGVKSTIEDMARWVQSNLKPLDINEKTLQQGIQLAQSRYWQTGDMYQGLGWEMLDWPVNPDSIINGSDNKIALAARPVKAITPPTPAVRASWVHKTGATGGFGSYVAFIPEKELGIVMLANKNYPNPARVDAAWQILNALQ
Chain of TEM-1 (P62593 24-286 limits assumed): as the sequence (P62593 24-286 limits assumed) above

For orientation: Ki means a measure of affinity in units of concentration, obtained from inhibition or displacement. For the molecule `O=S(=O)(/C=C/c1cccc(Br)c1)Nc1cccc(-c2nnn(Cc3cccc(Cl)c3)n2)c1`, the figures for the Ki in data set [1] and in data set [2] were 362 nM and 182 nM, respectively. Moreover, in [3] (double reciprocal plot, FIG. 3), the “mode of inhibition of TEM-1 beta-lactamase” value was “competitive inhibition”.
A word on the IC50: it is the concentration at which inhibition is half-maximal. As for `O=C(O)[C@H]1/C(=C/CO)O[C@@H]2CC(=O)N21` [Clavulanic Acid], in data set [4], the IC50 is at least 59000 nM.
On to `CC1(C)[C@H](C(=O)O)N2C(=O)C[C@H]2S1(=O)=O` [Sulbactam], for which the half-maximal inhibitory concentration (IC50) in data set [4] was at least 3800 nM.
On to `C[C@]1(Cn2ccnn2)[C@H](C(=O)O)N2C(=O)C[C@H]2S1(=O)=O` [Tazobactam], for which the IC50 in data set [4] is […].
On to `O=S(=O)(/C=C/c1cccc(Cl)c1)N(Cc1cccc(Cl)c1)c1cccc(Cl)c1` [ef-rs-03-075], for which the Ki in [5] amounted to 496 ± 57 nM; in data set [3] (25° C., 50 mM sodium phosphate, 5% DMSO, pH 7.0, nitrocefin 167 μM, read-out: Ki TEM-1 (WT)), 82 ± 12 nM.
For orientation: solubility means how much of the substance goes into solution per volume. What is called Kd is the concentration at which binding is half-saturated. Read a low Kd as higher affinity. By half-life is commonly meant the time needed for the level to fall by half in the phase considered. On to `COc1ccc(NS(=O)(=O)/C=C/c2cccc(Cl)c2)cc1OCc1cccc(Cl)c1` [ef-rs-04-091], for which the IC50 is 347 ± 43 nM in data set [5] and 671 ± 238 nM in data set [2]. In data set [6], this molecule displayed a solubility of 19 µM (≈ 8.82 µg/mL). Further, the Kd in data set [7] is 4080 nM and 4260 nM. Besides, the “TEM-1 ΔH” value in data set [8] is given as “+1.75 kcal/mol”. Also, the half-life in [9] stood at 70 ± 8 min.
For the molecule `COc1cccc(/C=C/S(=O)(=O)Nc2cccc(OCc3cccc(Cl)c3)c2)c1` [ef-rs-05-054], the half-maximal inhibitory concentration (IC50) worked out at 734 ± 106 nM in data set [5] and 555 ± 36 nM in [2]. The molecule also registered a solubility in data set [6] of 6 µM (≈ 2.58 µg/mL). In data set [7], the Kd is 97.5 nM and 202 nM. Moreover, the “TEM-1 ΔH” value in [8] is “+2.32 kcal/mol”. The molecule further yielded a half-life in data set [9] of 59 ± 6 min.
In the case of `O=S(=O)(/C=C/c1cccc(C(F)(F)F)c1)Nc1cccc(-c2nnn(Cc3cccc(Cl)c3)n2)c1` [ef-rs-05-076], the figures for the Ki in data set [1] and in [2] were 176 nM and 80 nM, respectively.
`COc1ccc(NS(=O)(=O)/C=C/c2cccc([N+](=O)[O-])c2)cc1OCc1cccc(Cl)c1` [ef-rs-05-080]: the IC50 came to 1100 ± 40 nM in data set [5] and 563 ± 63 nM in [2]. Besides, the concentration in solution in [6] (solubility) was 3 µM (≈ 1.42 µg/mL). The Kd in [7] is 4580 nM and 5350 nM. The molecule also yielded a half-life in data set [9] of 37 ± 4 min.
Consider `O=S(=O)(/C=C/c1cccc(Cl)c1)Nc1cccc(OCc2cccc(Cl)c2)c1` [ef-rs-08-048], for which the “MIC (MRSA) [4 μg/mL]” value in data set [10] (setting [12]) is given as 2. Further, the “reduction of Oxacillin MIC” value in data set [10] (compound at 4 μg/mL) and in data set [11] (compound at 4 μg/mL) was 8 fold in each case. The IC50 in data set [5] was 487 ± 90 nM; in data set [2] it was 477 ± 59 nM. The molecule further showed a solubility in data set [6] of 19 µM (≈ 8.25 µg/mL). The dissociation constant Kd in data set [7] was 113 nM and 252 nM. Further, in data set [11] (setting [12]), the “MIC (VRSA) [4 μg/ml]” value amounted to 0.25. In [9], this molecule gave a half-life of 120 ± 10 min.
For `O=S(=O)(/C=C/c1cccc(Cl)c1)N(Cc1cccc(Cl)c1)c1cccc(OCc2cccc(Cl)c2)c1` [ef-rs-08-052, (E)-N-(3-chlorobenzyl)-N-(3-(3-chlorobenzyloxy)phenyl)-2-(3-chlorophenyl)ethenesulfonamide], the Ki in data set [5] amounted to 203 ± 51 nM; in [2] it was 67 nM.
Consider `O=S(=O)(/C=C/c1cccc(Cl)c1)Nc1cccc(OCc2cccc(F)c2)c1` [ef-rs-09-012], for which the IC50 was 157 ± 12 nM in [5], 846 ± 100 nM in data set [2] and 523 ± 84 nM in data set [3]. Besides, in [6], the solubility amounted to 7 µM (≈ 2.93 µg/mL). Also, the Kd in [7] was 49 nM and 52 nM. This molecule also displayed a half-life in data set [9] of 81 ± 14 min.
For the molecule `COc1ccc(NS(=O)(=O)/C=C/c2cccc(Cl)c2)cc1O` [ef-rs-09-014], the IC50 amounted to 4690 ± 270 nM in [5], 3750 ± 500 nM in [2] and 2470 ± 50 nM in [3]. In addition, the solubility in data set [6] was determined as 450 µM (≈ 153 µg/mL). In data set [7], the dissociation constant (Kd) was found to be 2510 ± 1780 nM. In addition, in [9], the half-life is below 5 min.
Consider `COc1cccc(COc2cc(NS(=O)(=O)/C=C/c3cccc(Cl)c3)ccc2OC)c1` [ef-rs-09-018], for which the 50% inhibitory concentration (IC50) in [5] worked out at 256 ± 33 nM; in data set [2], 1070 ± 360 nM; in [3], 702 ± 91 nM. For the same molecule, the solubility in data set [6] worked out at 50 µM (≈ 23 µg/mL). Besides, the Kd in data set [7] was 348 ± 53 nM. In [9], this molecule came in with a half-life of 22 ± 6 min.
On to `COc1cc(NS(=O)(=O)/C=C/c2cccc(Cl)c2)ccc1OCc1cccc(Cl)c1` [ef-rs-09-029], for which the IC50 in data set [5] came to 171 ± 20 nM; in data set [2] it was 706 ± 66 nM; in data set [3], 406 ± 77 nM. This molecule gave a solubility in [6] of 8 µM (≈ 3.71 µg/mL). The Kd in [7] was 484 ± 76 nM.
The like results for `O=S(=O)(/C=C/c1cccc(Cl)c1)Nc1ccc(OCc2cccc(Cl)c2)cc1` [ef-rs-09-030] were, in that order, 63 ± 8 nM, 553 ± 58 nM, 85 ± 21 nM, 6 µM (≈ 2.61 µg/mL) and 301 ± 65 nM.
